In article PMC3268023, “Simple Preparation of Pacific Cod Trypsin for Enzymatic Peptide Synthesis” (Journal of Amino Acids, 2011) one finds Km data, which are given here for two compounds.

The structures appear in SMILES notation. Where a name gives a salt, the structure may show the parent alone.

For assay [1], the system named is Pacific cod trypsin (PcT). The assay can be described thus: p-nitroaniline release at […] nm, Lineweaver-Burk. It counts as biochemical, Gadus macrocephalus. Conditions: 50 mM Tris-HCl pH 8.0, 10 mM CaCl2, 30°C, substrate in DMSO (10 of 200 μL).
For assay [2], the system named is Pacific cod trypsin (PcT). Briefly: inverse substrate hydrolysis, absorbance at […] nm, Lineweaver-Burk. It counts as biochemical, Gadus macrocephalus. Conditions: 50 mM Tris-HCl pH 8.0, 10 mM CaCl2, 30°C, substrate in DMSO (10 of 200 μL).

Take `N=C(N)NCCC[C@H](NC(=O)c1ccccc1)C(=O)Nc1ccc([N+](=O)[O-])cc1` [BAPA, N-benzoyl-L-arginine p-nitroanilide hydrochloride]: in assay [1], the Michaelis-Menten constant (Km) was 37 µM.

On to `C[C@H](NC(=O)OC(C)(C)C)C(=O)Oc1ccc(C(=N)N)cc1` [5a, N-(tert-butoxycarbonyl)-L-alanine p-amidinophenyl esters], for which the Km in assay [2] worked out at 1.5 µM.

The Km is the substrate concentration at which the rate is half of its maximum.
